Activity and IC50 data for three compounds are collected here from ChEMBL document CHEMBL5247643, “Discovery and Characterization of BAY-805, a Potent and Selective Inhibitor of Ubiquitin-Specific Protease USP21” (J Med Chem, 2023).

Activity calls are given as the source filed them. The calls are words filed in the database; no cut-off is given here.

Broadly, the IC50 is the midpoint of a concentration-inhibition curve. Lower therefore signals higher potency.

The subject of one assay is MDA-MB-231. In words: Antiproliferative activity against human MDA-MB-231 cells assessed as reduction in cell viability up to 30 uM incubated for 72 hrs by CellTiter-Glo luminescent assay. Type of assay: functional, cell-based. In general terms: Cellular ATP, detected with luciferase, serves as a proxy for viable cell number.
A further assay has as its system U2OS. Description: Antiproliferative activity against human U2OS cells assessed as reduction in cell viability up to 30 uM incubated for 72 hrs by CellTiter-Glo luminescent assay. It counts as functional, cell-based.
The next assay relates to Jurkat. Description: Antiproliferative activity against human Jurkat cells assessed as reduction in cell viability up to 30 uM incubated for 72 hrs by CellTiter-Glo luminescent assay. Type of assay: functional, cell-based.
In the next assay the test system is A549. In words: Antiproliferative activity against human A549 cells assessed as reduction in cell viability up to 30 uM incubated for 72 hrs by CellTiter-Glo luminescent assay. It counts as functional, cell-based.
Another assay has as its system MOLM-13. In words: Antiproliferative activity against human MOLM-13 cells assessed as reduction in cell viability up to 30 uM incubated for 72 hrs by CellTiter-Glo luminescent assay. Type of assay: functional, cell-based.
Assay [1] concerns the target T1, Ubiquitin carboxyl-terminal hydrolase 21 (Homo sapiens, UniProt Q9UK80).
T1 sequence (Q9UK80 whole entry): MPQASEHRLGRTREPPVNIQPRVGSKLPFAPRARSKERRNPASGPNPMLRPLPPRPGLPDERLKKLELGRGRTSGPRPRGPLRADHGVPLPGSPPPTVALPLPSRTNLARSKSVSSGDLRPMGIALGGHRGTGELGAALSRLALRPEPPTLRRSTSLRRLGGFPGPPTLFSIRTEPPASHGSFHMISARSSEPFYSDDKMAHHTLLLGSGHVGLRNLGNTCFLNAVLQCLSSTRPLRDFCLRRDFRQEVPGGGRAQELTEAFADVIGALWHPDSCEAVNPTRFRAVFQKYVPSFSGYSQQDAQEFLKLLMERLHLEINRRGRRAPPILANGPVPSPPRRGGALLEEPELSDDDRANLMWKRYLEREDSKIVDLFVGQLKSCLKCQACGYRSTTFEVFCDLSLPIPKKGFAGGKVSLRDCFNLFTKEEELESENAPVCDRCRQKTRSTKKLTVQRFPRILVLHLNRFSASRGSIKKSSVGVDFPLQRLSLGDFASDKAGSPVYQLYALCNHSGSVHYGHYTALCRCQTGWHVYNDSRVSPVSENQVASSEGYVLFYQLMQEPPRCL
Description: Inhibition of human full length USP21 using Btn-Ahx-PNIRFLD-K(Ubi)-LPQQT-GD-amide as substrate preincubated for 15 to 20 mins followed by substrate addition and measured after 25 mins by HTRF assay.

For assay [2], the target named is T2, Ubiquitin carboxyl-terminal hydrolase 2 (Homo sapiens, UniProt O75604).
T2 sequence (O75604 whole entry): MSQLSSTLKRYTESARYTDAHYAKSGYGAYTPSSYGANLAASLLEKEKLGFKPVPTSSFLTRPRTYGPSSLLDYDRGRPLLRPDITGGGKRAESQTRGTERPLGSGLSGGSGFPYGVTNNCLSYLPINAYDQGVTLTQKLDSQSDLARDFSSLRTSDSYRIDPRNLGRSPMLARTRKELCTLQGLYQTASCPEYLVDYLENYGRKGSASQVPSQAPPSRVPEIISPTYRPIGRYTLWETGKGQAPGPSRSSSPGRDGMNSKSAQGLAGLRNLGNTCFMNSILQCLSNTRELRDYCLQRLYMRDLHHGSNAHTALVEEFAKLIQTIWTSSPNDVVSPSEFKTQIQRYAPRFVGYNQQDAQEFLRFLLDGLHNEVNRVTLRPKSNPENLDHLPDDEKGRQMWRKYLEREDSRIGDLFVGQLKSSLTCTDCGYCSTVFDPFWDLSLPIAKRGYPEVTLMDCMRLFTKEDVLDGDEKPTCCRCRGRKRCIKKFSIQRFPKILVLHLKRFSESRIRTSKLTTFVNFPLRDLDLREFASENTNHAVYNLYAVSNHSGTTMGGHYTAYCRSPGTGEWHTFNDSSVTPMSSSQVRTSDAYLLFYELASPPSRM
Description: Inhibition of human His-tagged USP2 (259 to 605 residues) using ubiquitin rhodamine 110 110 as substrate preincubated for 15 to 20 mins followed by enzyme addition and measured after 25 mins by fluorometric assay.

`CC(C)C[C@@H](NC(=O)C1(C(F)(F)F)CCCCC1)C(=O)Nc1nnc(Cc2ccc(C#N)cc2)s1`: the outcome in the assay on MDA-MB-231, in the assay on U2OS, with Jurkat, in the assay with A549 and in the assay on MOLM-13 was inactive.
Take `N#Cc1ccc(Cc2nnc(NC(=O)[C@H](NC(=O)C3(C(F)(F)F)CCCCC3)C3CCCC3)s2)cc1`: 0.012 µM corresponded to half-maximal inhibition in assay [1] (IC50). In other words, the double-digit nanomolar range.
In turn, `COCC(NC(=O)C1CCCC1)C(=O)Nc1nnc(Cc2ccc([N+](=O)[O-])cc2)s1` (racemic) gave an IC50 in assay [2] of 25 µM.
